Assay [1] deals with ICR (CD−1) male mice. Nature of the assay: Formalin test (mouse, phase II paw licking). Format: in vivo.
For assay [2], the system named is mouse. Nature of the assay: Mouse hotplate assay. In kind it is in vivo. Conditions: even at a high dose of 100 mg/kg; data not shown.
Assay [3] addresses T1, hNav1.7 (Homo sapiens, UniProt Q15858).
T1 construct: expressed in transfected cells; host or cells: HEK293
Kind of assay: Whole-cell patch clamp assay for hNav1.7 inhibition (HEK293 cells stably expressing hNav1.7). The settings on record: for inhibition at 10 µM: HEK293, TTX-sensitive Nav1.7 current, mean ± SD; for IC50: TTX-sensitive inactivated Nav1.7 current. In kind it is cell-based. As to the method: The compounds were tested as hNav1.7 peak current inhibitors at room temperature using human embryonic kidney 293 cells stably expressing hNav1.7. The holding voltage was depolarized to 0 mV from −120 mV for 20 ms and restored to −75 mV for 8 s. After that, the membrane potential was recovered to −120 mV for 20 ms and then depolarized to 0 mV for another 20 ms. Finally, the voltage was renewed to −120 mV for 30 ms. The potential was applied every 20 s. The compounds were administered when the voltage of hNav1.7 recorded by the whole-cell patch clamp was stable. Every compound concentration was tested for 5 min, and all compounds were tested at several concentrations and with multiple cells.
On the technique in general: Patch clamp records ionic current or voltage across a cell membrane.

The subject of assay [4] is mouse. Kind of assay: Mouse tail flick assay. In kind it is in vivo. The settings on record: even at a high dose of 100 mg/kg; data not shown. For orientation: Thermal pain tests record how soon the animal reacts.
The subject of assay [5] is ICR (CD−1) male mice. Nature of the assay: Formalin test (mouse, phase II paw licking). In kind it is in vivo. Conditions: for inhibition in vivo at 10 mg/kg: Mus musculus, ip, read-out: % Analgesia (formalin test). How it is done:
The formalin test was carried out using the method described previously. During the formalin test, Institute of Cancer Research (ICR; CD−1) male mice (weight: 22–25 g) were acclimated to the environment for two days before the experiment with food and water available freely. The mice were housed under a 12 h/12 h light/dark cycle. The temperature and humidity of the room were kept at 25 ± 2 °C and 50–60%, respectively. The mice were divided into a vehicle group, a ralfinamide group, and test compound groups randomly, with eight mice in each group. All compounds were dissolved in saline and administered by intraperitoneal injection (n = 8) or intragastric administration by mouth (n = 8) at 10 mg/kg. The vehicle group was given the same volume of saline.
After administration, the mice were placed into polyvinyl chloride (PVC) observation chambers. Thirty minutes later, the mice were injected subcutaneously with 20 μL of 2.7% formalin solution into the surface of their right hind paw and were returned to their PVC chambers immediately to observe their behavior. The cumulative time each mouse licked its right hind paw during phase II (15–30 min) was recorded as its painful time in phase II. The analgesic effects of the compounds were presented as the mean ± standard deviation. The data were analyzed by SPSS using one-way analysis of variance followed by Dunnett’s test. The analgesic activity of the test compounds was calculated according to the following formula. %Analgesia=Average Time (Vehicle)−Average Time (Drug)/Average Time (Vehicle)× 100%

In assay [6] the target is T2, hNav1.5 (Homo sapiens, UniProt Q14524).
T2 construct: expressed in transfected cells; host or cells: HEK293
T2 sequence (Q14524 whole entry): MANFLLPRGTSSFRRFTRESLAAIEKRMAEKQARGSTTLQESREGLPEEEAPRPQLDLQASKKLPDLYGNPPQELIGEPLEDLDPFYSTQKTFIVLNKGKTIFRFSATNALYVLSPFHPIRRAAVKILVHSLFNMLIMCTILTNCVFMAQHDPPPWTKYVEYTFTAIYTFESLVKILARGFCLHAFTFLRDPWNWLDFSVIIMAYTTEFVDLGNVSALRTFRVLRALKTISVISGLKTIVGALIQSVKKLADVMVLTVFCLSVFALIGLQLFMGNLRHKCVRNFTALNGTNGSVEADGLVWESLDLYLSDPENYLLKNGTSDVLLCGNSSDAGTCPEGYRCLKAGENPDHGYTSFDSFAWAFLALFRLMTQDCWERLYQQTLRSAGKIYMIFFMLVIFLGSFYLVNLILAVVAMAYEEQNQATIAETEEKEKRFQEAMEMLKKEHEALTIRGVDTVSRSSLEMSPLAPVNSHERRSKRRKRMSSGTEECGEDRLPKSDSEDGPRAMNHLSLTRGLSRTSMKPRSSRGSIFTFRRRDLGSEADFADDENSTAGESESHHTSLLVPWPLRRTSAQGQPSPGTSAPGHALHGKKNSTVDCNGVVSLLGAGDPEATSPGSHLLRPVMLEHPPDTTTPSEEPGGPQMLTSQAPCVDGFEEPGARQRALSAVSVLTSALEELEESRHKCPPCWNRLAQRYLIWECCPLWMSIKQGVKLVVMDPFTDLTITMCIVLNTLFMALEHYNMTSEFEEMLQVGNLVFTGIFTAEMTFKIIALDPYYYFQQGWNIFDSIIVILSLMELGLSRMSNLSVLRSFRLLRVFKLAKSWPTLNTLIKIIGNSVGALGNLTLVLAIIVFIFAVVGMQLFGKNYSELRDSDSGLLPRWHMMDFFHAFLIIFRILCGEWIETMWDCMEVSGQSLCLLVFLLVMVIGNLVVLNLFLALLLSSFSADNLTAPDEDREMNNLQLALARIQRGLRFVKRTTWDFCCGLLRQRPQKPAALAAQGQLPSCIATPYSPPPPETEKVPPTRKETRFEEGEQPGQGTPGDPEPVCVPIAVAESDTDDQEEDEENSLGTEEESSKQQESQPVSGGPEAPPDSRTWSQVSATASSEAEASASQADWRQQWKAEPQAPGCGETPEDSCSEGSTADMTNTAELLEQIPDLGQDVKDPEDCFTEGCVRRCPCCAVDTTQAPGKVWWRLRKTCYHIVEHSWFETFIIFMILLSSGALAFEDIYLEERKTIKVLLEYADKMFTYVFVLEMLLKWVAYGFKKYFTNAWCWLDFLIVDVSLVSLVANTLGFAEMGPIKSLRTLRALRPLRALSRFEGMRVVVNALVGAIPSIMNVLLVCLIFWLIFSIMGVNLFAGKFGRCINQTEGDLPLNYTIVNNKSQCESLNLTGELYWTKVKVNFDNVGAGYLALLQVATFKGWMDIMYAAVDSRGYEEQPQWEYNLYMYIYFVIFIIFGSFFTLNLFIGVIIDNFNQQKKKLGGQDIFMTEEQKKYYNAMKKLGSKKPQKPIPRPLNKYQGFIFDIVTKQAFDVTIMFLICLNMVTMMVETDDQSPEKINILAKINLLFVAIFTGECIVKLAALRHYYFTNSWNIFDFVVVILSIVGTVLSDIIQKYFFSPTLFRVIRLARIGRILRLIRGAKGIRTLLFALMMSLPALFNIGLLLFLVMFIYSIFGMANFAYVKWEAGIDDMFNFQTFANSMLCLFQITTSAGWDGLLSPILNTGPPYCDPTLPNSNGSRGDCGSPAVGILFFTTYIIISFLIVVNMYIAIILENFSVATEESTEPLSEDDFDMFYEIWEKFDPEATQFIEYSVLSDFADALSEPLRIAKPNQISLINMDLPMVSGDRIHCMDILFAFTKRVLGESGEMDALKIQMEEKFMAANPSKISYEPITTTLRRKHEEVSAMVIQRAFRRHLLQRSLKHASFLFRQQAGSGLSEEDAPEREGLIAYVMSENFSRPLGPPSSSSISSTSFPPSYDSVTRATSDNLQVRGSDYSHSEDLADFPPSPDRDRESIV
Nature of the assay: Assay for hNav1.5 inhibition (HEK293 cells stably expressing hNav1.5). In kind it is cell-based. The settings on record: for inhibition at 10 µM: HEK293, read-out: Inhibitory Effect to Nav1.5; for Inhibitory activity against Nav1.5 (in words): similarly to ralfinamide, low selectivity over the cardiac sodium channel. How it is done: The inhibition of the compounds to hNav1.5 peak current was performed at room temperature using HEK293 cells that could express hNav1.5 stably. The holding voltage of the membrane was transferred to 0 mV from −120 mV for 50 ms and then restored to −50 mV for 8 s. After that, the membrane potential was renewed to −120 mV for 20 ms, followed by a depolarization to 0 mV for 50 ms. At last, the potential was recovered to the holding voltage −120 mV for 30 ms. This progress was performed every 20 s. The compounds were administrated when the voltage of hNav1.5 was stable. Every concentration was tested for 5 min and all compounds were tested at several concentrations and with multiple cells.

Assay [7] concerns the target T3, hNav1.8 (Homo sapiens, UniProt Q9Y5Y9).
T3 construct: expressed in transfected cells; host or cells: CHO
Kind of assay: Whole-cell patch clamp assay for hNav1.8 inhibition (CHO cells stably expressing hNav1.8). Format: cell-based. The settings on record: for IC50: Nav1.8 inactivated state Na+ currents. As to the method:
The whole-cell patch clamp assay assessing the hNav1.8 current was carried out at room temperature with Chinese hamster ovary cells stably expressing hNav1.8. The holding voltage of the membrane was transferred to 0 mV from −120 mV for 50 ms and then restored to −50 mV for 8 s. After that, the membrane potential was renewed to −120 mV for 20 ms, which was followed by a depolarization to 0 mV for 50 ms. Finally, the potential was recovered to the holding voltage of −120 mV for 30 ms. This process was performed every 20 s. The compounds were administered when the voltage of hNav1.8 was stable. Every compound concentration was tested for 5 min, and all compounds were tested at several concentrations and with multiple cells.

Assay [8] deals with ICR (CD-1) male mice. Kind of assay: Acetic acid-induced writhing test. In kind it is in vivo. The settings on record: 10 mg/kg, i.p.; writhes in 20 min; mean ± SD, n = 6. How it is done: The writhing test was performed according to a previously reported method. The ICR (CD-1) male mice (weight: 22–25 g) were treated as for the formalin test in the same environment. The mice were divided into a vehicle group, a ralfinamide group, and test compound groups randomly, with six mice in each group. All compounds were dissolved in saline and administered by intraperitoneal injection at 10 mg/kg. The vehicle group was given the same volume of saline. After administration, the mice were placed into PVC chambers. Thirty minutes later, the mice were injected with 1% acetic acid solution at 10 mL/kg by intraperitoneal injection and placed into the observation chambers immediately to record the number of writhes each mouse had in 20 min. The results were presented as the mean ± standard deviation. The analytical method was the same as that for the formalin test, and the analgesic activity of each compound was calculated by the following formula. %Analgesia=Average Number (Vehicle)−Average Number (Drug)/Average Number (Vehicle)× 100%
(In writhing tests, fewer writhes than in controls are read as antinociception.)

Where [9] appears, read: read-out: Inhibitory Effect against Nav1.7, Activated State (TP−1).
Setting [10] is: read-out: Inhibitory Effect against Nav1.7, Inactivated State (TP−2).
Setting [11] is: 10 mg/kg, i.p., phase II (15–30 min), mean ± SD, n = 8.

SMILES strings stand for the structures. Where two headings read alike, the source gives them in different places.

T1 sequence (Q15858 whole entry): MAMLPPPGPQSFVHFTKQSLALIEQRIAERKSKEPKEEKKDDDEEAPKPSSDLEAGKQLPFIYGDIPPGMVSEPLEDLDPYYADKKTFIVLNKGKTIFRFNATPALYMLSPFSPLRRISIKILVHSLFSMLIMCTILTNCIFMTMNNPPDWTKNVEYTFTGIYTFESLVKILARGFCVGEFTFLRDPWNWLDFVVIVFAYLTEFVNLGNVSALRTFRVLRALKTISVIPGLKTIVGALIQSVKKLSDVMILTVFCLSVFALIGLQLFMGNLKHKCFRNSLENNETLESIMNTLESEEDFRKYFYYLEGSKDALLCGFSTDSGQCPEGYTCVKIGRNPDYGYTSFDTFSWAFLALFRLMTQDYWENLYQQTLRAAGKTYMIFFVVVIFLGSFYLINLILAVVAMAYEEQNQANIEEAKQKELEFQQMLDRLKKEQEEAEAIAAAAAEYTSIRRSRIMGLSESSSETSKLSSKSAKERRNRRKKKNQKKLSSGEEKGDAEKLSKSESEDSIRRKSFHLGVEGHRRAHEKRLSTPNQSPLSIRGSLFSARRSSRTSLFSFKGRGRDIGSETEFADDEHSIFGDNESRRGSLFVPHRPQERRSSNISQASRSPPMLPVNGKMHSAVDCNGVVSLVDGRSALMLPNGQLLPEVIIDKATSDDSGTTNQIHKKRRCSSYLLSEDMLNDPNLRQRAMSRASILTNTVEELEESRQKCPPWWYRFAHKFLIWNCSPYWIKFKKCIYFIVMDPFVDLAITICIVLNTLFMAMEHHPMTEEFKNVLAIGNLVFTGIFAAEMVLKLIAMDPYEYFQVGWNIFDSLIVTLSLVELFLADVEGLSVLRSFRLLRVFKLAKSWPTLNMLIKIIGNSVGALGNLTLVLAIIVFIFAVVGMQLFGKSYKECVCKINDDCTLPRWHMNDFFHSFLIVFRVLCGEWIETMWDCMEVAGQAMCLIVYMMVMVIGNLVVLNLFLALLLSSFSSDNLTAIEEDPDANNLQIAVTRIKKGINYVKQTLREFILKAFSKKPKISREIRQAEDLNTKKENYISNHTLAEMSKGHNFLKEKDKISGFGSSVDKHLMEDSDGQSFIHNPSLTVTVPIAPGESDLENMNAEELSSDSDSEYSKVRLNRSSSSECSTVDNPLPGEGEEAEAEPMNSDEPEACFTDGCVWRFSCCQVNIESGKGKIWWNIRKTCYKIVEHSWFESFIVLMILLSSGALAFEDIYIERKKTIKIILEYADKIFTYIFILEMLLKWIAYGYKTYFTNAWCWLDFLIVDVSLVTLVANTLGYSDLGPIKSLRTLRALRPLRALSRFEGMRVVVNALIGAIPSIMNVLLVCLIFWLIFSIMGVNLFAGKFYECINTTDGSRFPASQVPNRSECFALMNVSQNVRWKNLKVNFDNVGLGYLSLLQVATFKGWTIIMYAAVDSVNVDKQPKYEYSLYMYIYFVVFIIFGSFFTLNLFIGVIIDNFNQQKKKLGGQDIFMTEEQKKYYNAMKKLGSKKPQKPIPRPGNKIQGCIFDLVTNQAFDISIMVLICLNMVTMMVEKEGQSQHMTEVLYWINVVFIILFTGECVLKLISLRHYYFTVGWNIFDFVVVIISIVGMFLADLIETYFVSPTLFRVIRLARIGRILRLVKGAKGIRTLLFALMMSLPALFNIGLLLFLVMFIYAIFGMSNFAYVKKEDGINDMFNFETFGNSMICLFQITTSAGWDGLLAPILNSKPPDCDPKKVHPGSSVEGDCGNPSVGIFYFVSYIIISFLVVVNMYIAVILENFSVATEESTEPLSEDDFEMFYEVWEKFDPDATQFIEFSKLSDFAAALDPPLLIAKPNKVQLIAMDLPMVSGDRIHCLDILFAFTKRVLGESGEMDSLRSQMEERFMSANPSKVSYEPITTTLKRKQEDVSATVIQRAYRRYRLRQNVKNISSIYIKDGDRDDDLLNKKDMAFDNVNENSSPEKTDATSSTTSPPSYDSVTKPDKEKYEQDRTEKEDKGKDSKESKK

For orientation: IC50 means the midpoint of a concentration-inhibition curve. Turning to `C[C@H](NCc1cccc(COc2cccc3occc23)c1)C(N)=O` [Compound 6a, (S)-2-((3-((Benzofuran-4-yloxy)methyl)benzyl)amino)propanamide], the “Analgesic response (formalin test)” value in assay [1] (5 mg/kg, intraperitoneal injection, dose-effect relationship assay) was 69.6%. Besides, the “Dose dependence of analgesic activity (in words)” value in assay [1] (formalin test, 2.5 mg/kg, 5 mg/kg and 10 mg/kg by intraperitoneal injection) is given as “dose-dependent activity”. Moreover, in assay [2], the “Analgesic effect in mouse hotplate assay (in words)” value is “no analgesic effect”. Further, the inhibition at 10 µM in assay [3] (setting [9]) came out at 15.6 ± 0.8%; in assay [3] (setting [10]) it was 61.8 ± 0.2%; in assay [6], 66.8 ± 1.5%. Further, the figures for the 50% inhibitory concentration (IC50) in assay [3] (Table 4) and in assay [7] were 2.3 ± 0.2 µM and 4.3 ± 0.5 µM, respectively. Moreover, the “Nav1.7 IC50 compared to ralfinamide (in words)” value in assay [3] (ratio of IC50 values, Table 4) is given as “three times lower”. In addition, in assay [4], the “Analgesic effect in tail flick assay (in words)” value is reported as “no analgesic effect”. Further, in assay [5] (setting [11]), the “% Analgesia (formalin test)” value was 84.0 ± 16.2 ^☆ * %. The inhibition in vivo at 10 mg/kg in assay [5] (setting [11]) was determined as 84%. Besides, in assay [5] (formalin test, 10 mg/kg), the “Percentage of analgesia relative to ralfinamide (times higher)” value was 1.5–2 times. Further, in assay [5] (formalin test, oral administration assay, compared to ralfinamide), the “Analgesic activity after intragastric administration by mouth (in words)” value is reported as “higher analgesic activity than ralfinamide”. Moreover, the “Inhibitory activity against Nav1.5 (in words)” value (“Inhibitory activity” for short) in assay [6] was “moderate inhibitory activity”. Also, the “Potency against Nav1.8 compared to ralfinamide (in words)” value in assay [7] (ratio of IC50 values, Table 5) is given as “nearly nine-fold more potent”. Also, the “% Analgesia (acetic acid-induced writhing test)” value in assay [8] is reported as 49.7 ± 11.3 ^☆ %.

For the compound `C[C@H](NCc1cccc(COc2ccc3ccoc3c2)c1)C(N)=O` [Compound 6e, (S)-2-((3-((Benzofuran-6-yloxy)methyl)benzyl)amino)propanamide], in assay [2], the “Analgesic effect in mouse hotplate assay (in words)” value is given as “no analgesic effect”. Further, the results for the inhibition at 10 µM in assay [3] (setting [9]), in assay [3] (setting [10]) and in assay [6] were 11.4 ± 1.6%, 58.5 ± 1.8% and 70.1 ± 2.2%, respectively. In addition, the IC50 in assay [3] (Table 4) is 9.4 ± 2.7 µM; in assay [7] it was 10.1 ± 1.9 µM. Also, the “Analgesic effect in tail flick assay (in words)” value in assay [4] is “no analgesic effect”. Further, in assay [5] (setting [11]), the inhibition in vivo at 10 mg/kg was 71.7 ± 22%. The “Percentage of analgesia relative to ralfinamide (times higher)” value in assay [5] (formalin test, 10 mg/kg) is recorded as 1.5–2 times. In addition, in assay [6], the “Inhibitory activity” value is listed as “moderate inhibitory activity”. In addition, the “% Analgesia (acetic acid-induced writhing test)” value in assay [8] is recorded as 45.7 ± 17.2 ^☆ %.

Regarding `C[C@H](NCc1ccc(COc2ccc3ccoc3c2)cc1)C(N)=O` [Compound 6f, (S)-2-((4-((Benzofuran-6-yloxy)methyl)benzyl)amino)propanamide], the “Analgesic effect in mouse hotplate assay (in words)” value in assay [2] is “no analgesic effect”. For the same compound, the inhibition at 10 µM in assay [3] (setting [9]) amounted to 12.4 ± 2.9%; in assay [3] (setting [10]), 50.4 ± 3.6%; in assay [6] it was 48 ± 0.1%. Moreover, the IC50 in assay [3] (Table 4) turned out to be 8.1 ± 1.1 µM; in assay [7] it was 4.8 ± 0.7 µM. The “Analgesic effect in tail flick assay (in words)” value in assay [4] is listed as “no analgesic effect”. In addition, the inhibition in vivo at 10 mg/kg in assay [5] (setting [11]) is 67.8 ± 22.7%. The “Percentage of analgesia relative to ralfinamide (times higher)” value in assay [5] (formalin test, 10 mg/kg) is 1.5–2 times. Further, the “Inhibitory activity” value in assay [6] was “moderate inhibitory activity”. For the same compound, the “% Analgesia (acetic acid-induced writhing test)” value in assay [8] is 63.2 ± 13.3 ^☆ @ %.

(Values after PMC8003485, “Synthesis and Evaluation of Novel α-Aminoamides Containing Benzoheterocyclic Moiety for the Treatment of Pain” (Molecules, 2021).)
